Like-named read-outs stand apart in the source and are kept apart here.
Target: T1, IRAK4 (Homo sapiens, UniProt Q9NWZ3)
T1 construct: Degradation of IRAK4 in OCI-LY10 was quantitatively measured using Meso Scale Discovery technology; endogenous in cells; host or cells: OCI-LY10
T1 sequence (Q9NWZ3 1-460): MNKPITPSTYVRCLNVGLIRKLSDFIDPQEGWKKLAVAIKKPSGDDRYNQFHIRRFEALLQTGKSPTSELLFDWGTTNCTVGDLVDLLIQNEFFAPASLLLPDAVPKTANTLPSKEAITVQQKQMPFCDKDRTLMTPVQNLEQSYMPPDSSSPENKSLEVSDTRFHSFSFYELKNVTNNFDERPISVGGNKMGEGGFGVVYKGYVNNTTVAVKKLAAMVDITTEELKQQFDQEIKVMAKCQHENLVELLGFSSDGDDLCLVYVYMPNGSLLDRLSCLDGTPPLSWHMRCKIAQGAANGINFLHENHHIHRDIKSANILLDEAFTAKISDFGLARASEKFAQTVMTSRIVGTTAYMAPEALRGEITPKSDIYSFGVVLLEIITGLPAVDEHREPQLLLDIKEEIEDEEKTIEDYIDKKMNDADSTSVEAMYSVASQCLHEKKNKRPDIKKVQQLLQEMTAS
Experiment: IRAK4 MSD Degradation in OCI-LY10
Format: cell-based
Conditions: OCI-LY10 cells, MSD
How it was run: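 DC50, from a three-parameter logistic fit and reported as letter bins A (<0.01 μM), B, C, D (>0.2 μM or not tested), reflects IRAK4 loss measured by MSD electrochemiluminescence in OCI-LY10 lysates. Treatment: 8 doses, 1:3 steps, top 1 to 10 μM, 4 to 24 h, 37 °C.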

[1] = 4 hrs incubation, read-out: IRAK4 degradation in OCI-LY10 at 4 hrs: DC50
[2] = 24 hrs incubation, read-out: IRAK4 degradation in OCI-LY10 at 24 hrs: DC50

DC50 [1] [µM]	DC50 [2] [µM]	Compound
> 0.2	> 0.2	O=C1CCN(c2cccc(C#CCN3CCN(C[C@H]4CC[C@@H](n5cc(NC(=O)c6cnn7ccc(N8CC9CC(C8)O9)nc67)c(C(F)F)n5)CC4)CC3)c2)C(=O)N1 [I-436]
0.01 to 0.1	> 0.2	O=C1CCC(c2ccc(C#CCN3CCN(C[C@H]4CC[C@H](n5cc(NC(=O)c6cnn7ccc(N8C[C@H]9C[C@@H]8CO9)nc67)c(C(F)F)n5)CC4)CC3)cc2)C(=O)N1 (stereo partly shown) [I-437]
< 0.01	> 0.2	COc1cc2nn([C@H]3CC[C@H](CN4CCC(c5cccc6c5n(C)c(=O)n6C5CCC(=O)NC5=O)CC4)CC3)cc2cc1NC(=O)c1cncc(F)c1 (stereo partly shown) [I-439]
< 0.01	< 0.01	C[C@@H]1CN(c2ccn3ncc(C(=O)Nc4cn([C@H]5CC[C@H](CN(C)C6CCN(c7cccc8c7n(C)c(=O)n8C7CCC(=O)NC7=O)CC6)CC5)nc4C(F)F)c3n2)C[C@@H](C)O1 (stereo partly shown) [I-440]
< 0.01	< 0.01	C[C@H]1CN(c2ccn3ncc(C(=O)Nc4cn([C@H]5CC[C@H](CN(C)C6CCN(c7cccc8c7n(C)c(=O)n8C7CCC(=O)NC7=O)CC6)CC5)nc4C(F)F)c3n2)C[C@H](C)O1 (stereo partly shown) [I-441]
0.01 to 0.1	< 0.01	C[C@@H]1CN(c2ccn3ncc(C(=O)Nc4cn([C@H]5CC[C@H](CN(C)C6CCN(c7cccc8c7n(C)c(=O)n8C7CCC(=O)NC7=O)CC6)CC5)nc4C(F)F)c3n2)C[C@H](C)O1 (stereo partly shown) [I-442]
> 0.2	> 0.2	Cn1c(=O)n(C2CCC(=O)NC2=O)c2cccc(C3CCN(C[C@H]4CC[C@H](n5cc6cc(NC(=O)c7cccc(C(F)(F)F)n7)c(C(F)F)cc6n5)CC4)CC3(F)F)c21 (stereo partly shown) [I-443]
> 0.2	> 0.2	Cn1c(=O)n(C2CCC(=O)NC2=O)c2cccc(C3CCN(C[C@H]4CC[C@H](n5cc6cc(NC(=O)c7cccc(C(F)(F)F)n7)c(C#N)cc6n5)CC4)CC3(F)F)c21 (stereo partly shown) [I-444]
> 0.2	> 0.2	Cn1c(=O)n(C2CCC(=O)NC2=O)c2cccc(C3CCN(C[C@H]4CC[C@H](n5cc6cc(NC(=O)c7cccc(C(F)(F)F)n7)ccc6n5)CC4)CC3(F)F)c21 (stereo partly shown) [I-445]
> 0.2	> 0.2	COc1ccc2c(c1C1CCN(C[C@H]3CC[C@H](n4cc5cc(NC(=O)c6cccc(C(F)(F)F)n6)ccc5n4)CC3)CC1(F)F)n(C)c(=O)n2C1CCC(=O)NC1=O (stereo partly shown) [I-446]
> 0.2	< 0.01	Cn1c(=O)n(C2CCC(=O)NC2=O)c2cccc(C3CCN(C[C@H]4CC[C@H](n5cc6cc(NC(=O)c7cccc(C(F)(F)F)n7)ncc6n5)CC4)CC3(F)F)c21 (stereo partly shown) [I-447]
> 0.2	> 0.2	COc1ccc2c(c1C1CCN(C[C@H]3CC[C@H](n4cc5cc(NC(=O)c6cccc(C(F)(F)F)n6)ncc5n4)CC3)CC1(F)F)n(C)c(=O)n2C1CCC(=O)NC1=O (stereo partly shown) [I-448]
> 0.2	> 0.2	Cn1c(=O)n(C2CCC(=O)NC2=O)c2cccc(C3CCN(C[C@H]4CC[C@H](n5cc6cc(NC(=O)c7cccc(C(F)(F)F)n7)c(F)cc6n5)CC4)CC3(F)F)c21 (stereo partly shown) [I-449]
> 0.2	> 0.2	Cn1c(=O)n(C2CCC(=O)NC2=O)c2cccc(C3CCN(C[C@H]4CC[C@H](n5cc6cc(NC(=O)c7cccc(C(F)(F)F)n7)c(Cl)cc6n5)CC4)CC3(F)F)c21 (stereo partly shown) [I-450]
> 0.2	> 0.2	COc1cc2nn([C@H]3CC[C@H](CN4CCC(c5cccc6c5n(C)c(=O)n6C5CCC(=O)NC5=O)C(F)(F)C4)CC3)cc2cc1NC(=O)c1cccc(C(F)(F)F)n1 (stereo partly shown) [I-451]
> 0.2	> 0.2	Cc1cc2nn([C@H]3CC[C@H](CN4CCC(c5cccc6c5n(C)c(=O)n6C5CCC(=O)NC5=O)C(F)(F)C4)CC3)cc2cc1NC(=O)c1cccc(C(F)(F)F)n1 (stereo partly shown) [I-452]

DC50 [1] [µM]	DC50 [2] [µM]	Compound
> 0.2	> 0.2	COc1ccc2c(c1N1CCC(N(C)C[C@H]3CC[C@H](n4cc(NC(=O)c5cnn6cccnc56)c(C(F)F)n4)CC3)C(F)(F)C1)n(C)c(=O)n2C1CCC(=O)NC1=O (stereo partly shown) [I-453]
> 0.2	> 0.2	Cn1c(=O)n(C2CCC(=O)NC2=O)c2cccc(C3=CCN(C[C@H]4CC[C@H](n5cc6cc(NC(=O)c7cccc(C(F)(F)F)n7)ccc6n5)CC4)CC3(F)F)c21 (stereo partly shown) [I-454]
> 0.2	> 0.2	Cn1c(=O)n(C2CCC(=O)NC2=O)c2cccc(C3=CCN(C[C@H]4CC[C@H](n5cc6cc(NC(=O)c7cccc(C(F)(F)F)n7)c(C#N)cc6n5)CC4)CC3(F)F)c21 (stereo partly shown) [I-455]
> 0.2	> 0.2	Cn1c(=O)n(C2CCC(=O)NC2=O)c2cccc(C3=CCN(C[C@H]4CC[C@H](n5cc6cc(NC(=O)c7cccc(C(F)(F)F)n7)c(C(F)F)cc6n5)CC4)CC3(F)F)c21 (stereo partly shown) [I-456]
> 0.2	> 0.2	Cn1c(=O)n(C2CCC(=O)NC2=O)c2cccc(C3=CCN(C[C@H]4CC[C@H](n5cc6cc(NC(=O)c7cccc(C(F)(F)F)n7)ccc6n5)CC4)CC3F)c21 (stereo partly shown) [I-457]
> 0.2	> 0.2	Cn1c(=O)n(C2CCC(=O)NC2=O)c2cccc(C3=CCN(C[C@H]4CC[C@H](n5cc6cc(NC(=O)c7cccc(C(F)(F)F)n7)c(C#N)cc6n5)CC4)CC3F)c21 (stereo partly shown) [I-458]
> 0.2	> 0.2	Cn1c(=O)n(C2CCC(=O)NC2=O)c2cccc(C3=CCN(C[C@H]4CC[C@H](n5cc6cc(NC(=O)c7cccc(C(F)(F)F)n7)c(C(F)F)cc6n5)CC4)CC3F)c21 (stereo partly shown) [I-459]
> 0.2	> 0.2	Cn1c(=O)n(C2CCC(=O)NC2=O)c2cccc(C3CCN(C[C@H]4CC[C@H](n5cc6cc(NC(=O)c7cccc(C(F)(F)F)n7)ccc6n5)CC4)CC3O)c21 (stereo partly shown) [I-460]
> 0.2	> 0.2	Cn1c(=O)n(C2CCC(=O)NC2=O)c2cccc(C3CCN(C[C@]4(O)CC[C@@H](n5cc6cc(NC(=O)c7cccc(C(F)(F)F)n7)ccc6n5)CC4)CC3)c21 (stereo partly shown) [I-461]
> 0.2	> 0.2	COc1cc2nn([C@H]3CC[C@H](CN4CC=C(c5ccc6c(c5)n(C)c(=O)n6C5CCC(=O)NC5=O)C(F)(F)C4)CC3)cc2cc1NC(=O)c1cccc(C(F)(F)F)n1 (stereo partly shown) [I-462]
> 0.2	> 0.2	COc1cc2nn([C@H]3CC[C@H](CN4CCC(c5ccc6c(c5)n(C)c(=O)n6C5CCC(=O)NC5=O)C(F)(F)C4)CC3)cc2cc1NC(=O)c1cccc(C(F)(F)F)n1 (stereo partly shown) [I-463]
> 0.2	> 0.2	Cn1c(=O)n(C2CCC(=O)NC2=O)c2ccc(C3=CCN(C[C@H]4CC[C@H](n5cc6cc(NC(=O)c7cccc(C(F)(F)F)n7)ccc6n5)CC4)CC3(F)F)cc21 (stereo partly shown) [I-464]
> 0.2	> 0.2	Cn1c(=O)n(C2CCC(=O)NC2=O)c2ccc(C3CCN(C[C@H]4CC[C@H](n5cc6cc(NC(=O)c7cccc(C(F)(F)F)n7)ccc6n5)CC4)CC3(F)F)cc21 (stereo partly shown) [I-465]
> 0.2	> 0.2	COc1cc2nn([C@H]3CC[C@H](CN4CC=C(c5cccc6c(N7CCC(=O)NC7=O)cncc56)C(F)(F)C4)CC3)cc2cc1NC(=O)c1cccc(C(F)(F)F)n1 [I-466]
> 0.2	> 0.2	COc1cc2nn([C@H]3CC[C@H](CN4CCC(c5cccc6c(N7CCC(=O)NC7=O)cncc56)C(F)(F)C4)CC3)cc2cc1NC(=O)c1cccc(C(F)(F)F)n1 (stereo partly shown) [I-467]
> 0.2	> 0.2	O=C1CCN(c2cncc3c(C4=CCN(C[C@H]5CC[C@H](n6cc7cc(NC(=O)c8cccc(C(F)(F)F)n8)ccc7n6)CC5)CC4(F)F)cccc23)C(=O)N1 [I-468]
